Test results reported in patent publication US12473295B2, “Substituted straight chain spiro derivatives” (Janssen Pharmaceutica NV, priority 2019, dated 2025).
Where a name gives a salt, the structure may show the parent alone.

Columns and labels:
[1] = system: Cor.4U Cardiomyocytes; test: Ca2+-fluorescence assay in human pluripotent stem cell-derived cardiomyocytes (CTCM human), Cor.4U Cardiomyocytes; assay type: cell-based; parameters: key: Green: No concern; Yellow: Low concern; Red: High concern; Black: Very high concern due to arrhythmic events; conditions: 30 min
Protocol: (§1) 7) Cardio-Electrophysiological Effects of the Testing Compounds in Synchronously Beating Human Pluripotent Stem Cell-Derived Cardiomyocytes (hSC-CMs) Using a Ca^2+-Fluorescence Assay (CTCM Human)
(§2) Compounds were tested in the 96-well plates
Compounds were tested at 0.1 μM, 0.2 μM, 0.5 μM, 1 μM, 2.5 μM and 5 μM (n=4 per dose) on Cor.4U 9-Cardiomyocytes or on iCell® Cardiomyocytes2 […]
(§3) Dimethylsulfoxide (DMSO). The solutions of the compound in DMSO or its solvent (final concentration of 0.1% DMSO; n=8)
(§4) Preparation of Test Article and Controls
(§5) Tested compounds were dissolved in DMSO at 1000-fold the intended concentrations. A compound “mother-plate” was made, containing the test compounds and positive and negative controls at 1000-fold the final concentrations. At the experiment day, these stock solutions were diluted with Tyrode (Sigma), supplemented with 10 mM HEPES (Gibco), to 2-fold the intended concentration (in round bottom compound plates). Final DMSO concentration in test solutions and vehicle control was 0.1%.
hSC-CMs (Cor.4U® Cardiomyocytes) were obtained from CDI (Ncardia, Germany). Cells are pre-plated and seeded in fibronectin-coated 96-well plates at a density suited to form a monolayer and maintained in culture in a stage incubator (37° C., 5% CO2), according to the instructions of the cell provider.
(§6) Before Start of Experiment
(§7) At least one hour before the start of the experiments the normal cell medium was replaced with Tyrode solution with Calcium dye (see below).
(§8) Cal 520 dye (AAT Bioquest) was dissolved in 11 ml of Tyrode supplemented with 10 mM HEPES and warmed up to 37° C. before adding to the cells.
(§9) 35 μl cell culture medium was removed from each well and replaced with 35 μl of pre-warmed Cal 520 dye solution and cell plate was incubated for 45 min at 37° C./5% CO2. Cells were incubated for 5 min at 37° C.
(§10) Spontaneous electrical activity is recorded, using Cal520™ (AAT Bioquest) calcium fluorescence-dye signaling. This dye integrates the total intracellular calcium activity over the whole well. A bottle of Cal520 dye (50 μg, MW: 1103/mol) is dissolved with 50 μl DMSO as a stock solution of 0.9 mM. 50 μL of the stock solution of the dye was added to 10 ml Tryodes solution to have dye concentration of 4.5 μM. Subsequently, 35 μl of this dye solution was added into each well, to have a final dye concentration of 1.58 μM. The current dye protocol on this CTCM human assay was established recently (Ivan Kopljar et al, Journal of Pharmacological and toxicological methods 2018. 91: 80-86; Lu et al., Tox Sci 2019. 170 (2): 345-356).
(§11) Fluorescent signals (Ca^2+ transient morphology) were measured using the Functional Drug Screen System (FDSS/μCell; Hamamatsu, Japan) and the recordings were subsequently analyzed off-line, using appropriate software e.g. Notocord.
(§12) The cell plate was loaded into the FDSS/μCell for a test run: Ca^2+ transients were measured for 4 minutes to check for synchronous beating of the cardiomyocytes in each well. All 96 wells were measured simultaneously (sampling interval: 0.06 s, short exposure time: 10 ms; excitation wavelength 480 nm; emission wavelength 540 nm; FDSS/μCell warmed to 37° C.).
(§13) During the compound addition step, 100 μl of the respective double-concentrated test solutions was pipetted into each well simultaneously.
(§14) Data were analyzed off-line using appropriate software e.g. Notocord-Hem (version 4.3).
The following parameters of the Ca^2′ transient morphology were measured: • beat rate (BR) • amplitude of the Ca^2+ transient (Amp), • CTD90: Ca^2+ transient duration at 90% (time to 90% of the initial base value).
The presence of various ‘arrhythmia-like’ activities were also noted during the experimental periods. […]

[2] = system: iCell Cardiomyocytes2; test: Ca2+-fluorescence assay in human pluripotent stem cell-derived cardiomyocytes (CTCM human), iCell Cardiomyocytes2; assay type: cell-based; parameters: key: Green: No concern; Yellow: Low concern; Red: High concern; Black: Very high concern due to arrhythmic events; conditions: 30 min
Protocol: as §1, §2
Compounds were tested at 0.1 μM, 0.2 μM, 0.5 μM, 1 μM, 2.5 μM and 5 μM (n=4 per dose) on Cor.4U 9-Cardiomyocytes or on iCell® Cardiomyocytes2
Alternatively, compounds were tested at 0.1 μM, 0.3 μM; 1 μM, 3 μM, 10 μM and 30 μM (n=4 per dose) mostly on iCell® Cardiomyocytes2
as §3, §4, §5
Second line hSC derived cardiomyocyte called iCell®, Cardiomyocytes2 were purchased from FUJIFILM Cellular Dynamics (USA). The experiments with test drugs are carried out 5 to 7 days after plating the cells onto the plate to have a living, beating monolayer of hiPSC-derived cardiomyocytes. The beating monolayer in 96-well-plates are normally taken from 2 Vials of frozen iCell) Cardiomyocytes2 (≈5 million cells/vial), which will be plated onto […] 96-well plates (≈50K/well).
as §6, §7, §8, §9, §10, §11, §12, §13, §14
The following parameters of the Ca^2′ transient morphology were measured: • beat rate (BR) • amplitude of the Ca^2+ transient (Amp), • CTD90: Ca^2+ transient duration at 90% (time to 90% of the initial base value). […]

CC(C)[C@@H](CCC(C)(C)N)N1CC2(CCN(c3ncnnc3Oc3ccc(F)cc3-c3cncnc3C3CC3)C2)C1 (single isomer, unassigned) [Compound 37, (*R)-5-(6-(6-(2-(4-cyclopropylpyrimidin-5-yl)-4-fluorophenoxy)-1,2,4-triazin-5-yl)-2,6-diazaspiro[3.4]octan-2-yl)-2,6-dimethylheptan-2-amine]
Green: Color @ 0.1 μM (hazard score) ([1]; 0.1 μM) | Color @ 0.2 μM (hazard score) ([1]; 0.2 μM) | Color @ 0.5 μM (hazard score) ([1]; 0.5 μM) | Color @ 1 μM (hazard score) ([1]; 1 μM) | Color @ 2.5 μM (hazard score) ([1]; 2.5 μM) | Color @ 5 μM (hazard score) ([1]; 5 μM)

CCN(C(=O)c1cc(F)ccc1Oc1nncnc1N1CCC2(C1)CN([C@H](CCCN(C)CCC(=O)N(C)C)C(C)C)C2)C(C)C [Compound 246, (R)-2-((5-(2-(6-((3-(dimethylamino)-3-oxopropyl)(methyl)amino)-2-methylhexan-3-yl)-2,6-diazaspiro[3.4]octan-6-yl)-1,2,4-triazin-6-yl)oxy)-N-ethyl-5-fluoro-N-isopropylbenzamide formate]
Green: Color @ 0.1 μM (hazard score) ([2]; iCell Cardiomyocytes2, 0.1 μM) | Color @ 0.2 μM (hazard score) ([2]; iCell Cardiomyocytes2, 0.2 μM) | Color @ 0.5 μM (hazard score) ([2]; iCell Cardiomyocytes2, 0.5 μM) | Color @ 1 μM (hazard score) ([2]; iCell Cardiomyocytes2, 1 μM) | Color @ 2.5 μM (hazard score) ([2]; iCell Cardiomyocytes2, 2.5 μM) | Color @ 5 μM (hazard score) ([2]; iCell Cardiomyocytes2, 5 μM)
